# Test results published in ChEMBL document CHEMBL1131034, “Synthesis and pharmacological characterization of novel 6-fluorochroman derivatives as potential 5-HT1A receptor antagonists” (J Med Chem, 1998).
# pKi: −log10 of the molar value.
# Assays:
# [1] = target: T1, 5-hydroxytryptamine receptor 1A (Homo sapiens) (UniProt P08908); assay: Antagonist activity against CHO cells expressing the human 5-hydroxytryptamine 1A receptor in a forskolin stimulated adenylate cyclase (FSC) assay.; assay type: functional, cell-based
# T1 sequence (whole entry): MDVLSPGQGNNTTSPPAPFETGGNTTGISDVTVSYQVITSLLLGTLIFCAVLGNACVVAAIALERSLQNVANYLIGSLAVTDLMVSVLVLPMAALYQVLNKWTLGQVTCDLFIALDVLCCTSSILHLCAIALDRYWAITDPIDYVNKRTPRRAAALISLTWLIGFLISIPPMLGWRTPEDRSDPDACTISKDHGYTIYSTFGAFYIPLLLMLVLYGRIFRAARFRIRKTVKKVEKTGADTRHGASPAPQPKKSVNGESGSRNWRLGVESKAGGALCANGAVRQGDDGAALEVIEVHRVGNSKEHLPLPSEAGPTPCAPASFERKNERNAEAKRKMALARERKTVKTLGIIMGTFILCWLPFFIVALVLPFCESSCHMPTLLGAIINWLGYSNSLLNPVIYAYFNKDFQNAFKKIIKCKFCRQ
# [2] = target: T2, 5-hydroxytryptamine receptor 1A (Rattus norvegicus, UniProt P19327); assay: Binding affinity against 5-hydroxytryptamine 1A receptor on rat hippocampus using [3H]8-OH-DPAT as radioligand.; assay type: tissue-based
# T2 sequence (P19327 whole entry): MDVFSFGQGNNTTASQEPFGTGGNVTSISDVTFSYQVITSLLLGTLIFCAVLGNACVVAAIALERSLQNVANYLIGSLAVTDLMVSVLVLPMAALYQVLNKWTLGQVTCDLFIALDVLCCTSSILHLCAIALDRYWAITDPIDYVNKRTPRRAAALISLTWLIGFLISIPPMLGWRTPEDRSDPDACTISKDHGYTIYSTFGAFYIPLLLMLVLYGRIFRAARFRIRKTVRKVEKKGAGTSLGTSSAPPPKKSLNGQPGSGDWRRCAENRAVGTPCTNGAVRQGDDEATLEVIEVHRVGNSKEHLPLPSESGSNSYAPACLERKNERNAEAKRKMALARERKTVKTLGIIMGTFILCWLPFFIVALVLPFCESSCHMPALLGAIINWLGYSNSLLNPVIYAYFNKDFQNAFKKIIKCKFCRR
# [3] = target: T3, Adrenergic receptor alpha-1 (Rattus norvegicus, UniProt P15823+P23944+P43140); assay: Binding affinity against alpha-1 adrenergic receptor on rat cortex using [3H]-prazosin as radioligand.; assay type: tissue-based, Brain
# T3 sequence (P15823 whole entry): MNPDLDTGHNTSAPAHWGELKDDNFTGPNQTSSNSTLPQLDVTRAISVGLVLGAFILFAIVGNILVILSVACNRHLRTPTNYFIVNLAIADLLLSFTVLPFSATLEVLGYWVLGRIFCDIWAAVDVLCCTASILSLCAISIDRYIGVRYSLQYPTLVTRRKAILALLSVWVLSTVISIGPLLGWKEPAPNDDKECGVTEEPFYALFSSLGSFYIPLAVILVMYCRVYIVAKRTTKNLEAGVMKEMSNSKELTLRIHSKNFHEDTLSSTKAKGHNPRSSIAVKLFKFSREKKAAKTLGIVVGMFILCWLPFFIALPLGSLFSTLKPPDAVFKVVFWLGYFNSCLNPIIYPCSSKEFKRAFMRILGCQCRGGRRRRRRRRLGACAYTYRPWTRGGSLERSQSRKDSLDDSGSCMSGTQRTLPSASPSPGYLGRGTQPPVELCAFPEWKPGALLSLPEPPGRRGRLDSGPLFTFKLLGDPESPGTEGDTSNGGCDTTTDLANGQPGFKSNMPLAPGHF
# T3 sequence (P23944 whole entry): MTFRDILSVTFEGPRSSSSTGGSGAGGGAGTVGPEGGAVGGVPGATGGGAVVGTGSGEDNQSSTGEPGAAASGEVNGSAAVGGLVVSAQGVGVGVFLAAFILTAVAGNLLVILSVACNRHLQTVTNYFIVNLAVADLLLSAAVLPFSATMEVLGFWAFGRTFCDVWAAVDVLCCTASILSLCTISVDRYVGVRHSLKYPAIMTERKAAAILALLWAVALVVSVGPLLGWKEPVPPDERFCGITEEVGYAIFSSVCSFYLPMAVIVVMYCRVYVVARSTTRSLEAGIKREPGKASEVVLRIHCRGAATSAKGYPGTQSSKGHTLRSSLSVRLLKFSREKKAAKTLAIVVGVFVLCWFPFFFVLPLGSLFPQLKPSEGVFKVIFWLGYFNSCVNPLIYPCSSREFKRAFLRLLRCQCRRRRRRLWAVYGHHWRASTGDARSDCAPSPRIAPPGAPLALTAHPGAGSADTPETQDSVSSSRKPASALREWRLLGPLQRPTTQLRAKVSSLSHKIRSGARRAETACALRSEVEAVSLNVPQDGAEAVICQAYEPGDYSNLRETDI
# T3 sequence (P43140 whole entry): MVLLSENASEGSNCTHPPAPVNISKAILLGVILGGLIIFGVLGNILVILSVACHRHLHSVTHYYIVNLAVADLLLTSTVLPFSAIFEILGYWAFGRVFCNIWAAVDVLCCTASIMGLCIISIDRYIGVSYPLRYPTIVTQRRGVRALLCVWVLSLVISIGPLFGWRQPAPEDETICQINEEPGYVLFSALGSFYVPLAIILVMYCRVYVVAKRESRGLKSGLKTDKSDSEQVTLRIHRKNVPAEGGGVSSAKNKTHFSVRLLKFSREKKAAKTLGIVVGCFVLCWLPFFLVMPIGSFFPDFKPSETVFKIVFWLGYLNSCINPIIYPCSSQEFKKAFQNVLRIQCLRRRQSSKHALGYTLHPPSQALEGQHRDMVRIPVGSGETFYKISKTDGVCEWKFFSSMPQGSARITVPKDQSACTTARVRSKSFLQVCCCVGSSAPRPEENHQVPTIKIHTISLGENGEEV
# [4] = target: Serotonin 1a (5-HT1a) receptor/Adrenergic receptor alpha-1 (Rattus norvegicus) (UniProt P15823+P23944+P43140+P19327); assay: Selectivity for 5-HT1A receptor of rat hippocampus and alpha-1 adrenergic receptor of rat cortex.; assay type: tissue-based
# D(2) dopamine receptor = D(2) dopamine receptor (Rattus norvegicus, UniProt P61169); assay: Binding affinity against dopamine receptor D2 on rat striatum using [3H]spiperone as radioligand.; assay type: tissue-based
# Chain of D(2) dopamine receptor (P61169 whole entry): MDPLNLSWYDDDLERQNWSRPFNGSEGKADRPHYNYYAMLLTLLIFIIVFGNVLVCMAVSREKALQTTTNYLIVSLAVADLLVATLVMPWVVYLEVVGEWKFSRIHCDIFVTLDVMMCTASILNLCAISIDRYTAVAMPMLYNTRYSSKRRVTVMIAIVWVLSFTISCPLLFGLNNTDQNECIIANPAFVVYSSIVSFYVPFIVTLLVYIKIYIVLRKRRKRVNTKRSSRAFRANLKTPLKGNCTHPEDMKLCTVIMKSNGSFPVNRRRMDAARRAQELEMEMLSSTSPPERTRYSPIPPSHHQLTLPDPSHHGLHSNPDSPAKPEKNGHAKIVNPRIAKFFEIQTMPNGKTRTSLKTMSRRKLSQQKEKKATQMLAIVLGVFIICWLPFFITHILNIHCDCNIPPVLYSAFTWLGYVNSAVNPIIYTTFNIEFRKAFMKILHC
# [5] = Binding affinity (Ki) ratio of D2 receptor of rat striatum and 5-HT1A receptor of rat hippocampus.; assay type: tissue-based
SMILES,FSC recovery [1] [%],pKi [2],Ki [3] [nM],Selectivity [4],pKi (D(2) dopamine receptor),Ratio [5]
CCCOc1ccc(CCCCNCCOc2cc(F)cc3c2OCCC3=O)cc1,33,7.31,856,18,,
COc1ccc(CCCCNCCOc2cc(F)cc3c2OCC/C3=N/O)cc1,83,7.56,207,7.5,7.93,0.42
CN(C)c1ccc(CCCCNCCOc2cc(F)cc3c2OCCC3=O)cc1,37,7.55,574,20,7.46,1.2
COc1ccc(CCCCNCCOc2cc(F)cc3c2OCCC3O)cc1 (stereo in doubt; (-)-34) [listing 1 of 2 here],111,,,19,,13
COc1ccc(CCCCNCCOc2cc(F)cc3c2OCCC3=O)c2ccccc12,-15,6.17,198,0.29,6.82,0.23
COc1ccccc1CCCCNCCOc1cc(F)cc2c1OCCC2=O,44,7.62,75.6,3.2,7.63,0.99
CSc1ccc(CCCCNCCOc2cc(F)cc3c2OCCC3=O)cc1,49,7.74,315,17,7.41,2.1
COc1ccc(CCCCNCCOc2cc(F)cc3c2OCCC3=O)c(C)c1C,17,7.11,152,2,,
COc1ccc(CCCCNCCOc2cc(F)cc3c2OCCC3O)cc1 (stereo in doubt; 34),108,,,15,,1
CCCN(CCCCc1ccc2c(c1)OCO2)CCOc1cc(F)cc2c1OCCC2=O,6,7.16,734,11,5.81,22
COc1cccc(CCCCNCCOc2cc(F)cc3c2OCCC3=O)c1,3,7.36,249,5.7,6.95,2.6
O=C1CCOc2c(OCCNCCCCc3ccccc3)cc(F)cc21,16,7.38,91.5,2.2,7.36,1.1
COc1ccc(CCCCNCCOc2cc(F)cc3c2OCCC3OC)cc1 (stereo unspecified),111,7.74,175,9.6,8.04,0.5
O=C1CCOc2c(OCCNCCCCc3ccc([N+](=O)[O-])cc3)cc(F)cc21,3,7.71,258,13,,
COc1ccc(CCCCN(C)CCOc2cc(F)cc3c2OCCC3=O)cc1,10,7.28,1350,26,,
CCOc1ccc(CCCCNCCOc2cc(F)cc3c2OCCC3=O)cc1,52,7.74,663,37,7.26,3.1
O=C1CCOc2c(OCCNCCCCc3ccc(Cl)cc3)cc(F)cc21,30,7.72,98.9,5.2,7.49,1.7
"COc1ccc(CCCCNCCOc2cc(F)cc3c2OCCC3O)cc1 (single isomer, unassigned; (+)) [listing 2 of 2 here]",109,,,35,,0.23

# Further lines, results first:
FSC recovery [1] [%],pKi [2],Ki [3] [nM],Selectivity [4],pKi (D(2) dopamine receptor),Ratio [5],SMILES
40,8.02,19.9,2.1,8.30,0.52,COc1ccc(CCCNCCOc2cc(F)cc3c2OC(C)CC3)cc1 (stereo unspecified)
68,8.63,13.5,5.8,8.52,1.3,COc1ccc(CCNCCOc2cc(F)cc3c2OCCC3O)cc1 (stereo unspecified)
9,8.39,317,78,7.42,9.4,COc1ccc(CCNCCOc2cc(F)cc3c2OCCC3=O)cc1
53,9.57,4.07,15,9.51,1.2,COc1ccc(CCCCNCCOc2cc(F)cc3c2OC(C)CC3)cc1 (stereo unspecified)
17,7.96,355,32,7.15,6.4,N#Cc1ccc(CCCCNCCOc2cc(F)cc3c2OCCC3=O)cc1
12,9.73,2.73,15,8.09,43,COc1ccc(CCNCCOc2cc(F)cc3c2OC(C)CC3)cc1 (stereo unspecified)
,8.68,73.3,,9.32,,"COc1ccc(CCCCNCCOc2cc(F)cc3c2OCCC3O)cc1 (single isomer, unassigned; (+)) [listing 1 of 2 here]"
44,9.36,3.57,8.2,9.83,0.34,COc1ccc(CCCCNCCOc2cc(F)cc3c2OC(C)(C)CC3)cc1
76,8.05,30.8,3.4,8.64,0.26,COc1ccc(CCCCCCNCCOc2cc(F)cc3c2OC(C)CC3)cc1 (stereo unspecified)
59,8.13,19.1,2.6,8.52,0.41,COc1ccc(CCCCCNCCOc2cc(F)cc3c2OC(C)CC3)cc1 (stereo unspecified)
,9.51,5.86,,8.39,,COc1ccc(CCCCNCCOc2cc(F)cc3c2OCCC3O)cc1 (stereo in doubt; (-)-34) [listing 2 of 2 here]
